The source of these data is patent US6007814A, “Therapeutic uses of the hypervariable region of monoclonal antibody M195 and constructs thereof” (priority 1992, dated 1999).

SMILES strings stand for the structures.

Common to all, as to type: cell-based, human
The subject of one assay is HL-60 cell line. In words: HL-60 clonogenic assay (colony-forming inhibition) after ex vivo purging treatment. The settings on record: 4HC 100 μM, VP-16 5 μg/ml, 1 hr incubation at 37° C., colonies scored after 7 days, mean + SD. The method, then: Human Cell Line. HL-60 is a human acute promyelocytic leukemia cell line growing with a doubling time of 24 hours and a plating efficiency of 7-12% (148). The cell line was maintained in exponential growth in RPMI-1640 supplemented with 10% fetal calf serum (FCS-Hyclone, Logan, U.S.A.) 1% L-Glutamine at 37° C. in a humidified atmosphere of 5% CO2 air. Cell viability was always higher than 95% and cells were free of mycoplasma contamination.
(§1) Incubation Procedure and Culture Techniques. Tumor cells and normal BM cells were adjusted to a concentration of 2×10^6 /ml and 20×10^6 /ml, respectively. […] After completion of 1 hr incubation at 37° C., the cells were put on ice for five minutes and washed twice with RPMI supplemented with FCS. To simulate "ex vivo" BM purging conditions, the HL-60 cells were also incubated together with irradiated (3,000 cGy) BM cells (1:10 ratio). […] Cells were incubated at 37° C. in humidified atmosphere of 5% of CO2 in air and scored for colonies (>50 cells) after 7 days of incubation using an inverted microscope.
(§2) DATA ANALYSIS. All experiments were performed three or more times and the mean+standard deviation (SD) values of each experiment were calculated. Colony counts after drug treatment were expressed as a percent of the untreated control cells.

In another assay the test system is CFU-GM. In words: Clonogenic assay of normal bone marrow progenitors, CFU-GM. The following applies: normal BM; 4HC 100 μM, VP-16 5 μg/ml; 1 hr at 37° C.; scored at day 14; mean ± SD vs control cultures. The procedure: (§3) Bone Marrow Cells. Bone marrow was aspirated from the posterior iliac crest of healthy volunteers after obtaining written informed consent and BM mononuclear cells were collected after Ficoll-Hypaque gradient (1.077 g/cm3).
as §1
(§4) After treatment, normal bone marrow cells were assayed for colonies derived from CFU-GM, BFU-E and CFU-GEM as already described (150). […] Quadruplicate cultures were incubated as described above and the colonies were scored after 14 days of incubation. […] Colonies (>20 cells) were scored after 10 days of incubation.
as §2

In the next assay the test system is BFU-E. In words: Clonogenic assay of normal bone marrow progenitors, BFU-E. The settings on record: normal BM; 4HC 100 μM, VP-16 5 μg/ml; 1 hr at 37° C.; scored at day 14; mean ± SD vs control cultures. The method, then:
as §3, §1, §4, §2

Turning to `O=P1(N(CCCl)CCCl)NC(OO)CCO1` (stereo not drawn) [4HC], in the assay with HL-60 cell line, the colony-forming inhibition is listed as 99.5+0.8%. Also, the “COLONY FORMING INHIBITION CFU-GM” value in the assay on CFU-GM worked out at 84 ± 10%. In addition, the “COLONY FORMING INHIBITION BFU-E” value in the assay with BFU-E was found to be 80.3 ± 12.5%.
